Assay results as given in PMC8250858, “A Systematic Study of the Stability, Safety, and Efficacy of the de novo Designed Antimicrobial Peptide PepD2 and Its Modified Derivatives Against Acinetobacter baumannii” (Frontiers in Microbiology, 2021).

Tests used:
A. baumannii 17978 = test: Time-kill kinetics assay in MHB; format: cell-based, Acinetobacter baumannii; conditions: 37°C with shaking, 4 μg/mL for both peptides
Description: FIGURE 4 Time-kill kinetics assay. […] This experiment was performed in ex vivo whole rat blood at room temperature without shaking. A. baumannii (final concentration of 10^7 CFU/mL) was incubated with or without peptide (4 μg/mL) for 60 min. At the indicated time points, an aliquot of the sample was removed and diluted, and the remaining cell number was counted by plating on MHA plates. The data are expressed as the mean ± SD. […] A. baumannii (final concentration of 10^7 CFU/mL) was incubated with or without peptide at 37°C with shaking. The peptide concentration was 4 μg/mL for both peptides.

Hemolytic assay = format: cell-based, rat; conditions: rat red blood cells, 256 μg/mL peptide, 37°C 45 min; read-out: Hemolysis (%) at 256 μg/mL
Description: The blood cells were washed three times with PBS, where the volume of PBS was the same as that of the original blood, by gently turning the centrifuge tube upside down. After washing, ten microliters of blood cells were diluted 2,000-fold in PBS to count the cells. Finally, red blood cells were diluted to 5 × 10^8 cells/mL in PBS. Peptides were dissolved in water and filtered through a 0.2-μm filter to make a stock solution. The peptide concentration was quantitated by the UV280. The peptide solution was diluted in PBS to different concentrations (five times the tested concentrations). Twenty microliters of the peptide in PBS was mixed with 80 μL of red blood cell solution in a 96-well plate (V-bottom). The final peptide concentration was 16–256 μg/mL. In the positive control group, 20 μL of 5% Triton X-100 was added to the red blood cell solution for a final Triton X-100 concentration of 1%. For the negative control group, 20 μL of PBS solution was added. The 96-well plate was incubated at 37°C for 45 min. After centrifuging the 96-well plate at 1,500 × g for 5 min, 30 μL of the supernatant was mixed with 100 μL of deionized water in a 96-well plate (flat bottom). The concentration of heme in each well was measured by the UV405 using an Infinite M1000 pro (Tecan Austria GmbH, Austria). The hemolytic activity was calculated using the following formula. Hemolyticactivity=[(F-F0)/(Ft-F0)]×100% F is the UV405 of the peptide-treated sample F0 is the UV405 of the sample without peptide (negative control) Ft is the UV405 of the Triton-treated sample (positive control)

Ac-WKKIKKIIKKIKKI-NH2 [pepI2]
Killing rate compared (A. baumannii 17978): killed A. baumannii faster than colistin sulfate
hemolysis at 45 min, 256 μg/mL (Hemolytic assay): 0.27%
